Assay results: patent US20260115312A1, “Conjugates for neuroretinal drug delivery” (Mireca Medicines GmbH, priority 2022, published 2026)
pKi: −log10 of the molar value.

What was measured:
[1] = target: MCT2; settings: cited from earlier work
[2] = target: MCT1; settings: cited from earlier work
[3] = system: photoreceptors in rd1 retinal explant cultures; test: TUNEL assay of dying photoreceptors in rd1 organotypic retinal explant cultures; type: cell-based, mouse; settings: free drug solution, 160 μM in 20 μL, final 3.14 μM, P7-P11
Method: FIG. 3A—Treatment of organotypic retinal explant cultures derived from the rd1 mouse model. Retinas were cultured at P5 and treated with either liposome-encapsulated or non-encapsulated (free) neuroprotective drugs (CN03 or CN04) from P7-P11. Assuming an equal distribution across the entire culturing medium, the final drug concentration was 3.14 μM for all treatments. The amount of dying photoreceptors in tissue sections from cultures under various treatment conditions was assessed using the TUNEL assay. DAPI was used to distinguish the outer nuclear layer (ONL). INL=inner nuclear layer. Scale bar 50 μm.
FIG. 3B—As for 3A, shown are percentages of dying (TUNEL+) cells in the ONL. Under non-treated (NT) conditions, the number of TUNEL+ cells are high in the rd1 model. Administration of free CN03 or CN04 had no significant effect on cell death. […]
(§1) Retinas derived from the rd1 or rd10 mouse models were cultured following the protocol described above and treated with the drugs CN03 or CN04. […] 11 z-stacks 1 μm apart were recorded, and from the projected images, the number of TUNEL-positive cells in the outer nuclear layer was manually counted. For the rd10 derived cultures, the average number of photoreceptor rows residing in the outer nuclear layer was counted from microscopy images, using the same imaging method. […]

[4] = system: photoreceptors in rd10 retinal explant cultures; test: Remaining photoreceptor rows in rd10 organotypic retinal explant cultures; type: cell-based, mouse; settings: treated P11 until P17 or P24, DSPC-containing liposomes, same drug concentration
Method: FIG. 4A—Treatment of organotypic retinal explant cultures derived from the rd10 mice model. Retinas were cultured at P9 and treated from P11 until either P17 or P24 with free neuroprotective CN03 or with CN03 encapsulated in pyruvate-liposomes (Lp-Pyr/CN03). Representative images of retinal explant culture sections at P17 and P24. DAPI used as nuclear stain. ONL=outer nuclear layer, INL=inner nuclear layer.
FIG. 4B—As for 4A, shown is the number of remaining photoreceptor rows in the tissue sections. NT and CN03 substantially overlap. Results represent mean±SD. At P17: n=4-6. At P24: n=4-5. **=p≤0.01 between the Lp-Pyr/CN03 and CN03 or NT group. Statistical analysis: Two-way ANOVA with Tukey's multiple comparison test. Scale bar 50 μm.
as §1, with “CN04. A treatment was done by applying a 20 μL solution containing 160 μM drug (either loaded in liposomes or in a free solution) to the top of the cultures.” for “CN04.”

[5] = In vitro drug release from liposomes; type: physicochemical; settings: liposomes according to the invention, in vitro set-up
Method: Complete release of CN04 from liposomes according to the invention was shown in an in vitro set-up within 48 h. The release rate for CN03 and CN04 can be lowered by precipitation within the liposome cavity with a specific salt using a remote loading technique similar to what has been done for liposomal doxorubicin formulations. CN03 has previously been remote loaded in similar liposomes using calcium acetate salts (Vighi, E., et al., PNAS, 2018, 115(13)).

Cc1n[nH]c(C)c1Cc1sc2c(c1C(=O)N1C[C@H](O)CO1)c(=O)n(C)c(=O)n2CC(C)C [AR-C155858]
pKi [1]: > 8.00

Cc1[nH]nc(C(F)(F)F)c1Cc1sc2c(c1C(=O)N1C[C@](C)(O)CO1)c(=O)n(C)c(=O)n2C(C)C [AZD3965]
pKi [2]: 8.80

O=c1c2nc(Br)n([C@@H]3O[C@@H]4CO[P@@](=O)(S)O[C@@H]4C3O)c2nc2[nH]c(-c3ccccc3)cn12 (stereo partly drawn) [CN03, Rp-8-Br-PET-cGMPS]
Dying photoreceptors (TUNEL+ cells in ONL) [3]: no significant reduction in dying photoreceptors | Number of remaining photoreceptor rows [4]: did not achieve a rescue effect

O=c1c2nc(Sc3ccc(Cl)cc3)n([C@@H]3O[C@@H]4CO[P@@](=O)(S)O[C@@H]4C3O)c2nc2[nH]c(-c3ccccc3)cn12 (stereo partly drawn) [CN04, Rp-8-pCPT-PET-cGMPS]
Dying photoreceptors (TUNEL+ cells in ONL) [3]: no significant reduction in dying photoreceptors | Complete release from liposomes (time) [5]: ≤ 48 h
